Key:
[1] = test system: FeCl3-induced femoral artery thrombosis; assay: FeCl3-induced femoral artery thrombosis in rabbits, intravenous maintenance administration; assay type: in vivo, rabbit
Protocol: (§1) 2. Grouping and administration: 10 rabbits were randomly divided into 3 groups, 2 to 3 rabbits per group. 1) Sham operation group (NS): Intravenous injection of the same volume of physiological saline, with the same operation method as above; 2) polypeptide 2 administration group: 8.0 mg/kg+20.0 mg/kg/h; 3) positive control enoxaparin group: 50 U/kg+150 U/kg/h. According to the body weight in kilograms of the rabbits, the first dose of the drug to be tested was dissolved in 2 mL of physiological saline for single bolus injection. The maintaining dose was dissolved in 9 ml of physiological saline, and placed in a double-channel micro-injection pump, which was dripped off within 90 minutes at a dripping speed of […]. The sham operation group was administered with the same volume of physiological saline.
3.1 Surgery preparation of rabbits: Rabbits were sent to the laboratory for accommodation for one day, and then screened at first. Blood samples were taken from arteries within ears, which were subjected to blood routine analysis and APTT assay, and the rabbits with normal blood hemateikon and APTT between 16s to 28s were selected for experiments. The rabbits to be tested were fasted with free access to water for the night before the experiment. The rabbits were anesthetized with intravenous injection of 3% sodium pentobarbital solution at 1 ml/kg, fixed in the supine position, and then, the common carotid artery at one side, external jugular vein, femoral artery at one side, femoral vein, and forelimb vein at one side were isolated. The forelimb vein was subjected to intubation for administration; the left femoral vein was subjected to intubation for blood collection to determine the platelet aggregation rate; the femoral artery was used for the establishment of an arterial thrombosis model; the common carotid artery and external jugular vein were used for the establishment of an arterial and venous bypass thrombosis model.
3.2 Arterial thrombosis (AT) model: A small piece of a filter paper (1 cm×1.5 cm) absorbed with 50% FeCl3 solution was applied onto the right femoral artery while administration, below which a small piece of a plastic film (2.5 cm×2.0 cm) was placed to protect surrounding tissues. After 10 minutes, the filter paper was removed, and then, the blood vessels and local tissues were rinsed with warm physiological saline, and the covered blood vessels were cut off. The thrombus which attached to the blood vessel walls was peeled off to be weighed on a tin foil for its wet weight, and then kept overnight at room temperature and weighed for its dry weight.
3.3 Experimental Procedures: The femoral arteries in the […] and both sides in the rabbits were isolated and stabilized for 10 minutes before the administration was started. An AT model was established by covering the femoral artery with a 50% FeCl3 filter paper while administration, and the filter paper was removed after 15 minutes. Observation was continued for 120 min after administration until the experiment was completed.
4.4 Thrombus weight: After the experiment was completed, the segment of the blood vessels in which there had been thrombus formation was cut off, weighed for the wet weight, and then kept overnight at room temperature and weighed for the dry weight. The thrombosis inhibitory rate was calculated with a calculation equation as follows: […]

[2] = test system: blood coagulation function; assay: APTT in rabbits, intravenous maintenance administration; assay type: in vivo, rabbit
Protocol: as §1
(§2) 4.2 Determination of blood coagulation function: Blood samples were taken and the blood function (PT, APTT) was determined at 0 min before administration, at points of 30 min, 60 min, 90 min after administration, and at points of 60 min, 120 min and 180 min after termination of administration, using a platelet-aggregation coagulation factor analyzer. Blood samples were centrifuged at 3510 rpm for 8 min to obtain platelet poor plasma (PPP). Reagent reconstruction and preservation were performed according to the operation requirements of the kit. Immediately after each blood sample was placed into a test cup and then added with PT, TT and APTT reagents, the test was started. After the test was completed, results were recorded.

[3] = test system: blood coagulation function; assay: TT in rabbits, intravenous maintenance administration; assay type: in vivo, rabbit
Protocol: as §1, §2

[4] = test system: experimental cerebral infarction; assay: Progressive ischemic stroke (MCAO suture method) in rats; assay type: in vivo, rat; settings: for Cerebral index / Cerebral infarct volume ratio: 24 hours after the surgery
Protocol: 3.2 Grouping and administration: At 15 min after the mold was established, administration was started by jugular vein intubation, with the first dose and the maintenance dose for 60 min, […], while the model group was administered with physiological saline.
3.3 Experimental operation: Suture method (common carotid artery insertion method): the skin on the neck was cut open from a median incision thereon, and the common, external and internal carotid arteries were isolated therefrom. The common carotid artery was ligated at the heart-proximal end and the external carotid artery was ligated at the distal end. The distal end of the internal carotid artery was temporarily occluded with a small vascular clamp, and at the bifurcation of the common, external and internal carotid arteries, a thread for ligature was reserved. A small opening was cut with an eye scissor on the common carotid artery which was close to the internal carotid artery, to allow a certain degree of bending of the MCAO thread, which inserted into the internal carotid artery along the common carotid artery. During the thread insertion, the thread bended towards the direction of the operator, which was slowly pushed forward about 18 mm (from the bifurcation of the arteries), and terminated when a resistance was felt. The reserved thread was ligated at the bifurcation to fix the thread. At 15 min after the mold was established, the first dose was administered followed by maintenance dose for 60 min, and after the administration was finished, the wound in the neck was sutured in a conventional manner.
4.1 Neurobehavioral scores: Rats in both the groups were evaluated in terms of their neurobehavioral scores at 4, 8, and 24 hours after the surgery, with a Longa five-point quartering method as the standard: 0 point: no neurological defect; 1 point: adduction and failure to full extension of forelimbs on contralateral side when tail lifting; 2 points: rotation to the contralateral side; 3 points: toppling and falling to the contralateral side when walking; 4 points: failure to walk or coma. Cases with 1 to 4 points were classified as valid models.
4.2 observing infarct lesions and infarct volume by TTC staining: At 24 hours after the surgery, the animals were sacrificed and the brain was taken for TTC staining. The infarct volume was calculated by using a mapping software.
4.3 Cerebral index, cerebral water content: The rats in each group were rapidly decapitated 24 hours after the surgery and model establishment, and the whole brain was rapidly peeled off, which was then weighed for wet weight and used to calculate the brain index: Brain index=Brain wet weight/Body weight*100%

[5] = iv 8.0 + 20.0 (mg/kg + mg/kg/h)
[6] = iv 8.0 + 20.0 (mg/kg+mg/kg/h), Before administration
[7] = iv 8.0 + 20.0 (mg/kg+mg/kg/h), Termination 120 min
[8] = iv 8.0 + 20.0 (mg/kg+mg/kg/h), Termination 180 min
[9] = iv 0.5 + 1.25 (mg/kg + mg/kg/h)
[10] = iv 50 U + 150 U, Administration 30 min
[11] = iv 50 U + 150 U, Administration 60 min
[12] = iv 50 U + 150 U, Administration 90 min
[13] = iv 50 U + 150 U, Before administration
[14] = iv 50 U + 150 U, Termination 60 min
[15] = iv 50 U + 150 U, Termination 120 min
[16] = iv 50 U + 150 U, Termination 180 min

D-Phe Pro Arg Pro Gly Gly Gly Gly Asn Gly Asp Phe Glu Glu Ile Pro Glu Glu Tyr Leu Glu Ala Ala Ala Lys Cys Har Gly Asp Trp Pro Cys [Polypeptide 2]
Thrombus inhibitory rate Dry weight [1, 5]: 84.9 ± 2.3% | Thrombus inhibitory rate Wet weight [1, 5]: 75.6 ± 3.8% | Thrombus weight Dry weight [1, 5]: 3.2 ± 2.0 mg | Thrombus weight Wet weight [1, 5]: 14.2 ± 10.2 mg | APTT ([2]; iv 8.0 + 20.0 (mg/kg+mg/kg/h), Administration 30 min): 38.0 ± 2.3 S | APTT ([2]; iv 8.0 + 20.0 (mg/kg+mg/kg/h), Administration 60 min): 32.5 ± 1.0 S | APTT ([2]; iv 8.0 + 20.0 (mg/kg+mg/kg/h), Administration 90 min): 34.1 ± 3.7 S | APTT [2, 6]: 22.7 ± 1.7 S | APTT ([2]; iv 8.0 + 20.0 (mg/kg+mg/kg/h), Termination 60 min): 35.7 ± 14.0 S | APTT [2, 7]: 33.2 ± 2.7 S | APTT [2, 8]: 23.3 ± 1.6 S | TT [3, 6]: 26.8 ± 15.5 S | TT [3, 7]: 150.6 ± 3.5 S | TT [3, 8]: 28.2 ± 1.9 S | neurological behaviors (neurobehavioral score, Longa) ([4]; iv 0.5 + 1.25 (mg/kg + mg/kg/h), 4 h after surgery): 1.00 ± 0.58 | neurological behaviors (neurobehavioral score, Longa) ([4]; iv 0.5 + 1.25 (mg/kg + mg/kg/h), 8 h after surgery): 1.00 ± 0.58 | neurological behaviors (neurobehavioral score, Longa) ([4]; iv 0.5 + 1.25 (mg/kg + mg/kg/h), 24 h after surgery): 1.00 ± 0.58 | Cerebral index [4, 9]: 0.6648 ± 0.0374 % | Cerebral infarct volume ratio [4, 9]: 11.12 ± 6.56 % | Cerebral infarct volume ratio ([4]; iv 0.5 + 1.25 (mg/kg + mg/kg/h), listed as polypeptide 2): 11.12±6.56% | neurological behaviors (neurobehavioral score, Longa) ([4]; iv 1.0 + 2.5 (mg/kg + mg/kg/h), 4 h after surgery): 0.86 ± 1.07 | neurological behaviors (neurobehavioral score, Longa) ([4]; iv 1.0 + 2.5 (mg/kg + mg/kg/h), 8 h after surgery): 0.86 ± 0.90 | neurological behaviors (neurobehavioral score, Longa) ([4]; iv 1.0 + 2.5 (mg/kg + mg/kg/h), 24 h after surgery): 1.14 ± 0.69 | Cerebral index ([4]; iv 1.0 + 2.5 (mg/kg + mg/kg/h)): 0.6830 ± 0.0322% | Cerebral infarct volume ratio ([4]; iv 1.0 + 2.5 (mg/kg + mg/kg/h)): 8.01 ± 6.66 % | Cerebral infarct volume ratio ([4]; iv 1.0 + 2.5 (mg/kg + mg/kg/h), listed as polypeptide 2): 8.01±6.66%

Enoxaparin
Thrombus inhibitory rate Dry weight ([1]; iv 50 U + 150 U (U/kg+U/kg/h)): 10 ± 4.2% | Thrombus inhibitory rate Wet weight ([1]; iv 50 U + 150 U (U/kg+U/kg/h)): 40 ± 5.7% | Thrombus weight Dry weight ([1]; iv 50 U + 150 U (U/kg+U/kg/h)): 2.3 ± 2.1 mg | Thrombus weight Wet weight ([1]; iv 50 U + 150 U (U/kg+U/kg/h)): 3.9 ± 4.0 mg | APTT [2, 10]: 32.4 S | APTT [2, 11]: 36.2 S | APTT [2, 12]: 38.3 S | APTT [2, 13]: 25.7 S | APTT [2, 14]: 30.5 S | APTT [2, 15]: 62.1 S | APTT [2, 16]: 41.6 S | TT [3, 10]: >180 s | TT [3, 11]: >180 s | TT [3, 12]: 18.9 S | TT [3, 13]: 20.5 S | TT [3, 14]: 21.0 S | TT [3, 15]: 29.0 S | TT [3, 16]: 24.0 S | neurological behaviors (neurobehavioral score, Longa) ([4]; iv 90 U/kg + 120 U/kg/h, 4 h after surgery): 0.63 ± 0.74 | neurological behaviors (neurobehavioral score, Longa) ([4]; iv 90 U/kg + 120 U/kg/h, 8 h after surgery): 0.88 ± 0.64 | neurological behaviors (neurobehavioral score, Longa) ([4]; iv 90 U/kg + 120 U/kg/h, 24 h after surgery): 1.38 ± 0.74 | Cerebral index ([4]; iv 90 U/kg + 120 U/kg/h): 0.6819 ± 0.0356% | Cerebral infarct volume ratio ([4]; iv 90 U/kg + 120 U/kg/h): 10.22 ± 5.38 %

From US11643439B2, “Multi-target compound with anticoagulation and antiplatelet activity, preparation method therefor, and use thereof” (SHAANXI MICOT TECHNOLOGY LIMITED COMPANY, priority 2015, dated 2023)
